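Interpolation was linear, between the two tested concentrations surrounding the appropriate level; five concentrations were tested over 48 hours in 96-well plates. The concentration for 50% growth inhibition is given as GI50.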 Calls of active or inactive are those of the source. Rule as the data show it: active = GI50 up to about 1.1 µM and inactive = higher.
Experiments:
Assay in all cases: NCI-60 cell line screen, 48 h
LXFL 529 = system: LXFL 529
M19-MEL = system: M19-MEL
HOP-18 = system: HOP-18
KM-20L2 = system: KM-20L2
DLD-1 = system: DLD-1
SNB-78 = system: SNB-78
RXF 631 = system: RXF 631
DMS-273 = system: DMS-273
XF498 = system: XF498

| SMILES | GI50 (LXFL 529) | GI50 (M19-MEL) | GI50 (HOP-18) | GI50 (KM-20L2) | GI50 (DLD-1) | GI50 (SNB-78) | GI50 (RXF 631) | GI50 (DMS-273) | GI50 (XF498) |
| --- | --- | --- | --- | --- | --- | --- | --- | --- | --- |
| C/N=N/N(C)C(=O)NC | > 100 µM (inactive) | > 100 µM (inactive) | > 100 µM (inactive) | > 100 µM (inactive) | > 100 µM (inactive) | – | – | – | – |
| O=C1/C=C(/c2ccc(O)cc2)[C@@H](O)Cc2ccc(O)cc2O1 | 63.7 µM (inactive) | > 100 µM (inactive) | – | > 100 µM (inactive) | > 100 µM (inactive) | 41.8 µM (inactive) | 38.2 µM (inactive) | – | – |
| CCc1cccc(C)c1NC(=O)C(=O)Cc1nc2ccccc2s1 | > 100 µM (inactive) | > 100 µM (inactive) | > 100 µM (inactive) | > 100 µM (inactive) | > 100 µM (inactive) | > 100 µM (inactive) | > 100 µM (inactive) | > 100 µM (inactive) | – |
| Cc1ccc(C(=O)N(Cc2ccccc2)Cc2ccccc2)cc1/N=N/N(C)C | 6.31 µM (inactive) | – | – | – | 21.4 µM (inactive) | 27.2 µM (inactive) | – | 41.8 µM (inactive) | – |
| O=C(CC1(O)C(=O)Nc2ccccc21)c1cccc(O)c1 (stereo not drawn) | > 100 µM (inactive) | > 100 µM (inactive) | – | > 100 µM (inactive) | > 100 µM (inactive) | > 100 µM (inactive) | > 100 µM (inactive) | > 100 µM (inactive) | 42.5 µM (inactive) |
| CCOC(=O)N1CCc2cc(OC)c(OC)c3c2c1cc1cc(OC)c(OC)cc13 | 3.78 µM (inactive) | 1.88 µM (inactive) | 28.1 µM (inactive) | 1.36 µM (inactive) | 1.3 µM (inactive) | 16.1 µM (inactive) | 2.42 µM (inactive) | 0.667 µM (active) | 0.67 µM (active) |
| Cc1cc(N(CCC#N)CCC#N)ccc1/C=C(\NC(=O)/C=C/c1ccccc1)NC(=O)Nc1ccc(Cl)cc1 | 0.652 µM (active) | 93.1 µM (inactive) | – | 5.37 µM (inactive) | 75 µM (inactive) | > 10 µM (inactive) | – | 5.04 µM (inactive) | > 100 µM (inactive) |
| N=C(N)NCCCS(=O)(=O)Nc1ccc(Nc2c3ccccc3nc3cc([N+](=O)[O-])ccc23)cc1 | 5.62 µM (inactive) | 3.63 µM (inactive) | 20.8 µM (inactive) | 23.9 µM (inactive) | 30.1 µM (inactive) | 21.4 µM (inactive) | 25.7 µM (inactive) | 4.21 µM (inactive) | 1.91 µM (inactive) |
| C=Nc1ccc([N+](=O)[O-])cc1 | > 72.8 µM (inactive) | > 100 µM (inactive) | > 26.1 µM (inactive) | > 100 µM (inactive) | > 100 µM (inactive) | > 100 µM (inactive) | – | > 100 µM (inactive) | > 100 µM (inactive) |
| COC1=CC(=O)C2[C@H]3Cc4ccccc4[C@H]3C2(C)C1=O (stereo partly drawn) | > 100 µM (inactive) | 83.2 µM (inactive) | – | 77.3 µM (inactive) | > 100 µM (inactive) | 78 µM (inactive) | > 100 µM (inactive) | > 100 µM (inactive) | 51.5 µM (inactive) |
| c1cncc(C2N3CCCCC3[C@@H]3c4[nH]c5ccccc5c4CCN23)c1 (stereo partly drawn) | > 100 µM (inactive) | > 100 µM (inactive) | > 100 µM (inactive) | > 100 µM (inactive) | > 100 µM (inactive) | 87.1 µM (inactive) | > 100 µM (inactive) | > 100 µM (inactive) | > 100 µM (inactive) |
| CC(NC(=O)/C(C#N)=C/c1ccc2[nH]ccc2c1)c1ccccc1 (stereo not drawn) | 19.5 µM (inactive) | – | 24.3 µM (inactive) | 18.6 µM (inactive) | 19.1 µM (inactive) | 38.7 µM (inactive) | – | 23.5 µM (inactive) | – |
| CCNC(=O)O/N=C1\CCC2[C@@H]3CC=C4C[C@@H](OC(=O)NCC)CC[C@]4(C)C3CC[C@]12C (stereo partly drawn) | 1.01 µM (active) | 1.65 µM (inactive) | 1.7 µM (inactive) | 2.44 µM (inactive) | 6.71 µM (inactive) | – | 4.26 µM (inactive) | 1.22 µM (inactive) | 0.0792 µM (active) |
| C#CC1(O)CCC2C3CCc4cc(Oc5nc(F)nc(-c6c7ccccc7c7sc8ccccc8n67)n5)ccc4C3CC[C@@]21C (stereo partly drawn) | > 100 µM (inactive) | > 100 µM (inactive) | – | > 100 µM (inactive) | > 100 µM (inactive) | – | – | 75.5 µM (inactive) | > 100 µM (inactive) |
| CCCN(CCC)c1c([N+](=O)[O-])cc(C(=O)N(C)C)cc1[N+](=O)[O-] | > 100 µM (inactive) | 92 µM (inactive) | – | – | > 100 µM (inactive) | > 100 µM (inactive) | – | 30.2 µM (inactive) | 54.7 µM (inactive) |
| CC1=[N+]([O-])c2ccccc2C(=O)C1=O | > 100 µM (inactive) | 44.8 µM (inactive) | > 100 µM (inactive) | > 100 µM (inactive) | > 100 µM (inactive) | > 100 µM (inactive) | – | > 100 µM (inactive) | > 100 µM (inactive) |
| COc1cccc2c1C(=O)c1c(O)c3c(c(O)c1C2=O)C[C@@](O)(C(=O)CO)C[C@@H]3OC1CC(N)C(OC)C(C)O1 (stereo partly drawn) | 0.0776 µM (active) | – | 0.156 µM (active) | 0.148 µM (active) | 0.0667 µM (active) | 0.207 µM (active) | 0.0329 µM (active) | 0.0122 µM (active) | < 0.01 µM (active) |

| SMILES | GI50 (LXFL 529) | GI50 (M19-MEL) | GI50 (HOP-18) | GI50 (KM-20L2) | GI50 (DLD-1) | GI50 (SNB-78) | GI50 (RXF 631) | GI50 (DMS-273) | GI50 (XF498) |
| --- | --- | --- | --- | --- | --- | --- | --- | --- | --- |
| N/N=C1\C(=O)N(C2CCCCCC2)C(=O)C1C(=O)NC1CCCCCC1 (stereo not drawn) | 22.8 µM (inactive) | 37.9 µM (inactive) | 31 µM (inactive) | 19.5 µM (inactive) | 41.5 µM (inactive) | 21.8 µM (inactive) | – | – | – |
| CCC1=CCC(P(=O)(c2ccccc2)c2ccccc2)CC1C (stereo not drawn) | 41.8 µM (inactive) | 39.5 µM (inactive) | 22.8 µM (inactive) | 37.1 µM (inactive) | – | 61.2 µM (inactive) | – | 36.3 µM (inactive) | 40.1 µM (inactive) |
| CCCCC/C=C1\CCC(CN2CCOCC2)C1=O (stereo not drawn) | 5.32 µM (inactive) | 19 µM (inactive) | 14.2 µM (inactive) | 13.8 µM (inactive) | 5.94 µM (inactive) | 12.6 µM (inactive) | 12.1 µM (inactive) | – | 17.4 µM (inactive) |
| COC(COC(N)=O)C1=C(N2CC2)C(=O)C(C)=C(N2CC2)C1=O (stereo not drawn) [CARBOQUONE] | 0.196 µM (active) | 0.0968 µM (active) | 0.199 µM (active) | 0.0608 µM (active) | 0.113 µM (active) | 0.574 µM (active) | – | < 0.01 µM (active) | 0.154 µM (active) |
| Cc1ccc(Sc2ccccc2N)cc1 | 16.8 µM (inactive) | 41.6 µM (inactive) | 77.8 µM (inactive) | 39.9 µM (inactive) | – | 84.7 µM (inactive) | 29 µM (inactive) | 30.8 µM (inactive) | – |
| COC(=O)[C@@H]1c2[nH]c3ccccc3c2C[C@@H]2c3ccccc3NC(=O)[C@@H]21 | > 65.2 µM (inactive) | > 89.3 µM (inactive) | – | > 100 µM (inactive) | > 100 µM (inactive) | > 76.4 µM (inactive) | – | > 57.5 µM (inactive) | > 100 µM (inactive) |
| NC(=O)COc1c(Br)cc(Br)cc1Br | – | > 100 µM (inactive) | – | > 100 µM (inactive) | > 100 µM (inactive) | – | > 100 µM (inactive) | > 100 µM (inactive) | > 100 µM (inactive) |
| CN(Cc1ccccc1)C(=O)c1ccccc1C(=O)O | > 100 µM (inactive) | > 100 µM (inactive) | – | > 100 µM (inactive) | > 100 µM (inactive) | – | > 100 µM (inactive) | > 100 µM (inactive) | > 100 µM (inactive) |
| C/C(CN1C(=O)c2ccccc2C1=O)=N\NS(=O)(=O)c1ccc(C)cc1 | > 100 µM (inactive) | > 100 µM (inactive) | > 100 µM (inactive) | > 100 µM (inactive) | > 100 µM (inactive) | > 100 µM (inactive) | – | > 100 µM (inactive) | – |
| Cc1cc2c(=O)cc(-c3ccc(Cl)c(Cl)c3)oc2c(C(=O)O)c1C | > 100 µM (inactive) | > 100 µM (inactive) | > 100 µM (inactive) | > 100 µM (inactive) | > 100 µM (inactive) | > 100 µM (inactive) | – | – | > 100 µM (inactive) |
| CN(C)C(=S)/N=c1\ssc(=S)n1Cc1ccccn1 | 3.9 µM (inactive) | 2.36 µM (inactive) | 9.38 µM (inactive) | 1.94 µM (inactive) | 4.45 µM (inactive) | 30.2 µM (inactive) | 3.7 µM (inactive) | 1.64 µM (inactive) | 8.95 µM (inactive) |
| CCOC(=O)C(C)(c1cn(C)c2ccccc12)c1cn(C)c2ccccc12 | > 100 µM (inactive) | > 100 µM (inactive) | – | > 100 µM (inactive) | > 100 µM (inactive) | 70 µM (inactive) | 50.8 µM (inactive) | > 100 µM (inactive) | 32.3 µM (inactive) |
| C[C@H]1C=C2C(=O)O[C@H]3CC[C@@H](C1)[C@@]23O | 2.93 µM (inactive) | 3.76 µM (inactive) | 3.18 µM (inactive) | 4.91 µM (inactive) | 2.7 µM (inactive) | 2.82 µM (inactive) | – | – | – |
| O=C1CN(C(=O)c2ccccc2)Cc2[nH]c3ccccc3c21 | > 100 µM (inactive) | > 100 µM (inactive) | > 100 µM (inactive) | > 100 µM (inactive) | > 100 µM (inactive) | > 100 µM (inactive) | > 100 µM (inactive) | > 100 µM (inactive) | > 100 µM (inactive) |
| Nc1nc(N)c(CCCCc2ccccc2)c(N)n1 | > 100 µM (inactive) | > 100 µM (inactive) | – | > 100 µM (inactive) | > 100 µM (inactive) | – | – | > 100 µM (inactive) | > 100 µM (inactive) |
| COc1cc(C(=O)N[C@H]2CCc3cc(OC)c(OC)c(OC)c3-c3ccc(SC)c(=O)cc32)cc(OC)c1OC | 0.00811 µM (active) | 0.0225 µM (active) | – | 0.00475 µM (active) | 0.00731 µM (active) | 0.0025 µM (active) | 0.0338 µM (active) | 0.00298 µM (active) | 0.024 µM (active) |
| COc1ccc2oc3c(OC)c(OC)c(OC)cc3c(=O)c2c1 | > 100 µM (inactive) | > 100 µM (inactive) | 0.232 µM (active) | > 100 µM (inactive) | > 100 µM (inactive) | 69.7 µM (inactive) | > 100 µM (inactive) | > 100 µM (inactive) | > 100 µM (inactive) |

From ChEMBL document CHEMBL1201862, “PubChem BioAssay data set” (2004)
